Measurements from PubChem BioAssay AID248 (DTP/NCI, 2004).
Where “and” joins values, the source holds several entries; their conditions need not be identical. Equal values may be shown once. Toxic doses and inconclusive results are not listed.

System: L1210 leukemia ip in BDF1 mice, survival T/C
Test: NCI In Vivo Anticancer Drug Screen. Data for tumor model L1210 Leukemia (intraperitoneal) in B6D2F1 (BDF1) mice
Details: endpoint: mean survival time, higher = longer survival
Method in brief: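 Transplanted-tumor mice were given test agent; controls received vehicle only. Survival readings from the two groups were divided (treated over control).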

[1] = dose: 5.0 mg/kg/injection, schedule: Q01DX001 (ip), vehicle: saline
[2] = dose: 10.0 mg/kg/injection, schedule: Q01DX001 (ip), vehicle: saline
[3] = dose: 20.0 mg/kg/injection, schedule: Q01DX001 (ip), vehicle: saline
[4] = dose: 100.0 mg/kg/injection, schedule: Q01DX001 (ip), vehicle: carboxymethylcellulose (CMC)
[5] = dose: 200.0 mg/kg/injection, schedule: Q01DX001 (ip), vehicle: carboxymethylcellulose (CMC)
[6] = dose: 100.0 mg/kg/injection, schedule: Q01DX001 (ip), vehicle: Klucel (hydroxypropylcellulose) (HPC)
[7] = dose: 200.0 mg/kg/injection, schedule: Q01DX001 (ip), vehicle: Klucel (hydroxypropylcellulose) (HPC)
[8] = dose: 400.0 mg/kg/injection, schedule: Q01DX001 (ip), vehicle: Klucel (hydroxypropylcellulose) (HPC)
[9] = dose: 100.0 mg/kg/injection, schedule: Q04DX002 (ip), vehicle: Klucel (hydroxypropylcellulose) (HPC)
[10] = dose: 200.0 mg/kg/injection, schedule: Q04DX002 (ip), vehicle: Klucel (hydroxypropylcellulose) (HPC)
[11] = dose: 400.0 mg/kg/injection, schedule: Q04DX002 (ip), vehicle: Klucel (hydroxypropylcellulose) (HPC)
[12] = dose: 400.0 mg/kg/injection, schedule: Q01DX001 (ip), vehicle: saline

SMILES: COc1ccc2cc3[n+](cc2c1OC)CCc1cc2c(cc1-3)OCO2
- T/C (dose: 3.12 mg/kg/injection, schedule: Q01DX009 (ip), vehicle: Klucel (hydroxypropylcellulose) (HPC)): 110 % of control
- T/C [1]: 103 % of control
- T/C (dose: 6.25 mg/kg/injection, schedule: Q01DX009 (ip), vehicle: Klucel (hydroxypropylcellulose) (HPC)): 117 % of control
- T/C [2]: 109 % of control
- T/C (dose: 12.0 mg/kg/injection, schedule: Q01DX Z (ip), vehicle: saline): 114 % of control
- T/C (dose: 12.5 mg/kg/injection, schedule: Q01DX009 (ip), vehicle: Klucel (hydroxypropylcellulose) (HPC)): 101 % of control and 106 % of control
- T/C [3]: 109 % of control

SMILES: CC(C)(O)CCNc1ncnc2c1ncn2C1OC(CO)C(O)C1O (centres undefined)
- T/C (dose: 25.0 mg/kg/injection, schedule: Q01DX005 (ip), vehicle: water): 97 % of control and 104 % of control
- T/C (dose: 50.0 mg/kg/injection, schedule: Q01DX005 (ip), vehicle: water): 103 % of control and 110 % of control
- T/C (dose: 100.0 mg/kg/injection, schedule: Q01DX005 (ip), vehicle: water): 106 % of control and 109 % of control

SMILES: CCC1C(=O)CCN(C)C1c1cc2ccccc2[nH]1 (centres undefined)
- T/C [4]: 105 % of control
- T/C [5]: 91 % of control

SMILES: O=C1c2cc(Br)ccc2-c2c(N=Cc3ccc4c(c3)OCO4)cc(Br)cc21
- T/C (dose: 100.0 mg/kg/injection, schedule: Q01DX001 (ip), vehicle: other): 95 % of control
- T/C (dose: 200.0 mg/kg/injection, schedule: Q01DX001 (ip), vehicle: other): 103 % of control
- T/C (dose: 400.0 mg/kg/injection, schedule: Q01DX001 (ip), vehicle: other): 106 % of control

SMILES: Cc1cnc2c(N)nc(-c3ccccc3)nc2n1
- T/C [6]: 94 % of control
- T/C [7]: 103 % of control
- T/C [8]: 100 % of control

SMILES: Cc1ccc(NNC(=O)C(O)C(O)C(O)C(O)CO)cc1 (centres undefined)
- T/C (dose: 50.0 mg/kg/injection, schedule: Q01DX009 (ip), vehicle: saline): 92 % of control
- T/C (dose: 100.0 mg/kg/injection, schedule: Q01DX009 (ip), vehicle: saline): 96 % of control
- T/C (dose: 200.0 mg/kg/injection, schedule: Q01DX009 (ip), vehicle: saline): 100 % of control

SMILES: COc1ccc2cc1Oc1ccc(cc1)CC1c3c(cc(OC)c4c3Oc3cc5c(cc3O4)CCNC5C2)CCN1C (centres undefined)
- T/C [9]: 98 % of control
- T/C [10]: 98 % of control
- T/C [11]: 91 % of control

SMILES: O=C(CCN1CC1)OCCOC(=O)CCN1CC1
- T/C (dose: 7.1 mg/kg/injection, schedule: Q01DX Z (ip), vehicle: methylcellulose (MC)): 97 % of control
- T/C (dose: 7.2 mg/kg/injection, schedule: Q01DX005 (ip), vehicle: saline): 121 % of control
- T/C (dose: 10.6 mg/kg/injection, schedule: Q01DX Z (ip), vehicle: methylcellulose (MC)): 113 % of control
- T/C (dose: 12.5 mg/kg/injection, schedule: Q04DX003 (ip), vehicle: acetone): 109 % of control
- T/C (dose: 16.0 mg/kg/injection, schedule: Q01DX Z (ip), vehicle: methylcellulose (MC)): 113 % of control and 120 % of control
- T/C (dose: 16.5 mg/kg/injection, schedule: Q04DX003 (ip), vehicle: acetone): 101 % of control
- T/C (dose: 16.5 mg/kg/injection, schedule: Q04DX003 (ip), vehicle: saline): 110 % of control
- T/C (dose: 22.0 mg/kg/injection, schedule: Q01DX001 (ip), vehicle: saline): 122 % of control
- T/C (dose: 24.0 mg/kg/injection, schedule: Q01DX Z (ip), vehicle: methylcellulose (MC)): 98 % of control and 103 % of control
- T/C (dose: 25.0 mg/kg/injection, schedule: Q01DX009 (ip), vehicle: acetone): 150 % of control
- T/C (dose: 25.0 mg/kg/injection, schedule: Q04DX003 (ip), vehicle: acetone): 103 % of control
- T/C (dose: 37.5 mg/kg/injection, schedule: Q01DX009 (ip), vehicle: acetone): 160 % of control
- T/C (dose: 37.5 mg/kg/injection, schedule: Q04DX003 (ip), vehicle: acetone): 106 % of control
- T/C (dose: 37.5 mg/kg/injection, schedule: Q04DX003 (ip), vehicle: saline): 105 % of control
- T/C (dose: 50.0 mg/kg/injection, schedule: Q04DX003 (ip), vehicle: acetone): 124 % of control
- T/C (dose: 55.0 mg/kg/injection, schedule: Q01DX005 (ip), vehicle: saline): 155 % of control

SMILES: O=C(O)c1cccc(Cl)c1F
- T/C (dose: 50.0 mg/kg/injection, schedule: Q04DX002 (ip), vehicle: saline with Tween-80): 97 % of control
- T/C (dose: 100.0 mg/kg/injection, schedule: Q04DX002 (ip), vehicle: saline with Tween-80): 97 % of control and 107 % of control
- T/C (dose: 200.0 mg/kg/injection, schedule: Q04DX002 (ip), vehicle: saline with Tween-80): 97 % of control

SMILES: c1ccc(SCc2cccnc2)nc1
- T/C (dose: 100.0 mg/kg/injection, schedule: Q01DX001 (ip), vehicle: saline): 97 % of control
- T/C (dose: 200.0 mg/kg/injection, schedule: Q01DX001 (ip), vehicle: saline): 88 % of control
- T/C [12]: 94 % of control

SMILES: CCCCCCCCCCCCCCCCCC(=O)NCC#CCN1CCCC1
- T/C [1]: 97 % of control
- T/C [2]: 94 % of control
- T/C [3]: 100 % of control
- T/C (dose: 25.0 mg/kg/injection, schedule: Q01DX009 (ip), vehicle: Klucel (hydroxypropylcellulose) (HPC)): 96 % of control
- T/C (dose: 40.0 mg/kg/injection, schedule: Q01DX001 (ip), vehicle: saline): 105 % of control
- T/C (dose: 50.0 mg/kg/injection, schedule: Q01DX009 (ip), vehicle: Klucel (hydroxypropylcellulose) (HPC)): 95 % of control
- T/C (dose: 80.0 mg/kg/injection, schedule: Q01DX001 (ip), vehicle: saline): 94 % of control
- T/C (dose: 100.0 mg/kg/injection, schedule: Q01DX009 (ip), vehicle: Klucel (hydroxypropylcellulose) (HPC)): 90 % of control
- T/C [12]: 104 % of control

SMILES: O=[N+]([O-])c1ccc(OCc2ccc(Cl)c(S(=O)(=O)F)c2)c(Cl)c1
- T/C (dose: 100.0 mg/kg/injection, schedule: Q01DX001 (ip), vehicle: gum acacia): 102 % of control
- T/C (dose: 200.0 mg/kg/injection, schedule: Q01DX001 (ip), vehicle: gum acacia): 102 % of control
- T/C (dose: 400.0 mg/kg/injection, schedule: Q01DX001 (ip), vehicle: gum acacia): 98 % of control

SMILES: BrC(c1ccccc1)C(Br)[n+]1ccccc1 (centres undefined)
- T/C (dose: 75.0 mg/kg/injection, schedule: Q01DX001 (ip), vehicle: other): 107 % of control

SMILES: Nc1c(Cl)ncn2c(=O)n(Cc3ccccc3)nc12
- T/C [4]: 96 % of control
- T/C [5]: 105 % of control
- T/C (dose: 400.0 mg/kg/injection, schedule: Q01DX001 (ip), vehicle: carboxymethylcellulose (CMC)): 105 % of control

SMILES: COc1cc(C(C)=O)ccc1OCc1ccccc1
- T/C (dose: 25.0 mg/kg/injection, schedule: Q01DX009 (ip), vehicle: saline with Tween-80): 98 % of control and 107 % of control
- T/C (dose: 50.0 mg/kg/injection, schedule: Q01DX009 (ip), vehicle: saline with Tween-80): 96 % of control and 103 % of control
- T/C (dose: 100.0 mg/kg/injection, schedule: Q01DX009 (ip), vehicle: saline with Tween-80): 96 % of control and 101 % of control
- T/C (dose: 200.0 mg/kg/injection, schedule: Q01DX009 (ip), vehicle: saline with Tween-80): 93 % of control and 112 % of control

SMILES: CCCCCCCCCCCCCCCCC(C(=O)O)C(O)(CC(=O)O)C(=O)O (centres undefined)
- T/C (dose: 19.0 mg/kg/injection, schedule: Q01DX Z (ip), vehicle: carboxymethylcellulose (CMC)): 92 % of control
- T/C (dose: 37.5 mg/kg/injection, schedule: Q01DX Z (ip), vehicle: carboxymethylcellulose (CMC)): 92 % of control
- T/C (dose: 75.0 mg/kg/injection, schedule: Q01DX Z (ip), vehicle: carboxymethylcellulose (CMC)): 86 % of control and 87 % of control
- T/C (dose: 150.0 mg/kg/injection, schedule: Q01DX Z (ip), vehicle: carboxymethylcellulose (CMC)): 88 % of control

SMILES: O=c1c(N=Nc2ccc(Cl)cc2)c(O)n(-c2ccc(I)cc2)c(=S)n1-c1ccccc1
- T/C [6]: 93 % of control
- T/C [7]: 104 % of control
- T/C [8]: 102 % of control

SMILES: COc1ccc(Cl)cc1NC(=S)Nc1ccccc1
- T/C [9]: 90 % of control
- T/C [10]: 101 % of control
- T/C [11]: 101 % of control

SMILES: CCCCCCCCCCCCNc1c(OCC)c(=O)c1=O
- T/C (dose: 100.0 mg/kg/injection, schedule: Q04DX003 (ip), vehicle: Klucel (hydroxypropylcellulose) (HPC)): 88 % of control
- T/C (dose: 200.0 mg/kg/injection, schedule: Q04DX003 (ip), vehicle: Klucel (hydroxypropylcellulose) (HPC)): 91 % of control
- T/C (dose: 400.0 mg/kg/injection, schedule: Q04DX003 (ip), vehicle: Klucel (hydroxypropylcellulose) (HPC)): 93 % of control
